Drawing on patent publication US20230219963A1, “PYRROLO[2,3-D]PYRIMIDINE DERIVATIVES” (Pfizer Inc., priority 2020, published 2023), this text covers IC50 for 3 compounds.

One may read the IC50 as the concentration that gives 50% inhibition. The low end stands for greater potency in that assay, the high end for weaker potency in that assay.

The target in the assay is T1, JAK3 (Homo sapiens, UniProt P52333).
T1 sequence (P52333 1-1124): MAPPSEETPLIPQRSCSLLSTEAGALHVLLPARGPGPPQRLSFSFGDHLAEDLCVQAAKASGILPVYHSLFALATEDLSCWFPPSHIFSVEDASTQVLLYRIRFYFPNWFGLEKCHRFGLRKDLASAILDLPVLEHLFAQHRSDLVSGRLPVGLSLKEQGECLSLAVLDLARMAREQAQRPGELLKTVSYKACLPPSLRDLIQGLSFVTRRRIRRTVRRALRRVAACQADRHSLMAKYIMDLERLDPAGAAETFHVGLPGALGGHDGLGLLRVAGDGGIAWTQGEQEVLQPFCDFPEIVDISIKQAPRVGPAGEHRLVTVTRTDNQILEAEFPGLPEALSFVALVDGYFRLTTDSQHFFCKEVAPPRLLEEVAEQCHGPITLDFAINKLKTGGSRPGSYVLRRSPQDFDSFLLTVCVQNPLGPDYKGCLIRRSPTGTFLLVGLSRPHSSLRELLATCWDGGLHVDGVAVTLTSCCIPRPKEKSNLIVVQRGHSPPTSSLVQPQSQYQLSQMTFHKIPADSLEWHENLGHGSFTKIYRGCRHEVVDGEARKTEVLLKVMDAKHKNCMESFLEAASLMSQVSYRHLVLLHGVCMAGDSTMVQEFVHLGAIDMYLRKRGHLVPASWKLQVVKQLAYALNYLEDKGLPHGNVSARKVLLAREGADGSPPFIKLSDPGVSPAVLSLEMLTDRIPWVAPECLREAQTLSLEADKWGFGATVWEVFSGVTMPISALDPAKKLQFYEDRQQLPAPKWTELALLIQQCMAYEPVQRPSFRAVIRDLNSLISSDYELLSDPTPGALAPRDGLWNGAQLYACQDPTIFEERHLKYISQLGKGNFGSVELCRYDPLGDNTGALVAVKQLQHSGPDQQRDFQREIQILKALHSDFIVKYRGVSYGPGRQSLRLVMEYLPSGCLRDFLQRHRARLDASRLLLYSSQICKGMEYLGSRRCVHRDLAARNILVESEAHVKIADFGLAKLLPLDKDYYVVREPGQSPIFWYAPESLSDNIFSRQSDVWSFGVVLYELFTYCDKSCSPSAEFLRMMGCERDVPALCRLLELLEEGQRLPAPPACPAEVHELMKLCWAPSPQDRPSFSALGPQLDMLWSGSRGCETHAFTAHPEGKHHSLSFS
In words: JAK Caliper Enzyme Assay at 1 mM ATP (JAK3). The class given is biochemical. As to the method:
JAK Caliper Enzyme Assay at 1 mM ATP
Test article was solubilized in dimethyl sulfoxide (DMSO) to a stock concentration of 30 mM. An 11-point half log dilution series was created in DMSO with a top concentration of 600 μM. […] The compound plates were diluted 1 to 60 resulting in a top final assay compound concentration of 10 μM and a 2% DMSO concentration. Test article and assay controls were added to a 384-well plate. Reaction mixtures contained 20 mM HEPES, pH 7.4, 10 mM magnesium chloride, 0.01% bovine serum albumin (BSA), 0.0005% Tween 20, 1 mM ATP and 1 μM peptide substrate. […] The assays were initiated by the addition of 20 nM JAK1, 1 nM JAK2, 1 nM JAK3 or 1 nM TYK2 enzyme and were incubated at room temperature for three hours for JAK1, 60 minutes for JAK2, 75 minutes for JAK3 or 135 minutes for TYK2. Enzyme concentrations and incubation times were optimized for each new enzyme preps and were modified slightly over time to ensure 20%-30% phosphorylation. The assays were stopped with a final concentration of 10 mM EDTA, 0.1% Coating Reagent and 100 mM HEPES, pH=7.4. The assay plates were placed on a Caliper Life Science Lab Chip 3000 (LC3000) instrument, and each well was sampled using appropriate separation conditions to measure the unphosphorylated and phosphorylated peptide.
The compound `CN(c1ncnc2[nH]ccc12)[C@H]1C[C@@H](NS(=O)(=O)CCCO)C1` [IB (M1), 3-Hydroxy-N-(cis-3-(methyl(7H-pyrrolo[2,3-d]pyrimidin-4-yl)amino)cyclobutyl)propane-1-sulfonamide] came in with a half-inhibitory concentration (IC50) above 10 µM.

Consider `C[C@@H](O)CS(=O)(=O)N[C@H]1C[C@@H](N(C)c2ncnc3[nH]ccc23)C1` (single isomer, unassigned) [IC (M3)], for which the 50% inhibitory concentration (IC50) is above 10 µM.

`C[C@H](O)CS(=O)(=O)N[C@H]1C[C@@H](N(C)c2ncnc3[nH]ccc23)C1` (single isomer, unassigned) [IA (M2)] displayed an IC50 above 10 µM.
